Values of other authors, collected in patent US9402854B2, “Pharmaceutical composition” (Cipla Limited, priority 2012, dated 2016).

Conditions: versus racemic formoterol (contains both (S,S) and (R,R) enantiomers)

In the case of COc1ccc(C[C@@H](C)NC[C@H](O)c2ccc(O)c(NC=O)c2)cc1 [Arformoterol], the “potency relative to racemic formoterol” value is listed as “two-fold greater potency”.
